In brackets after ≈: the same amount, converted by molar mass.
Conditions: buffer; pH 7.4; 200.0 µM

Structure (SMILES) | solubility kinetic
CC(C)=NOc1nc(N(C)C)nc(N2CCOCC2)n1 | 41.9 µg/mL (≈ 149 µM)
CSc1cccc(NC(N)=O)c1 | 25.1 µg/mL (≈ 138 µM)
Cc1ccnc(NS(=O)(=O)c2ccc(NC(=O)c3oc4ccc(F)cc4c3C)cc2)n1 | 1.6 µg/mL (≈ 3.63 µM)
COc1ccc(/C=C2\C(=O)NCC(=O)N2C)cc1 | 11.4 µg/mL (≈ 46.3 µM)
COc1ccc(NC(=O)c2cc(S(=O)(=O)N3CCCC3)oc2C)cc1 | 2.5 µg/mL (≈ 6.86 µM)
Cc1ccc(Cl)c(OCC(=O)OCC(=O)c2ccc[nH]2)c1 | 8.7 µg/mL (≈ 28.3 µM)
COc1cccc(CNC(=O)N2CCN(c3ccccc3C)CC2)c1 | 15.3 µg/mL (≈ 45.1 µM)
COC1CCCN(Cc2nc(Cc3ccccc3F)no2)C1 (stereo not given) | 37.9 µg/mL (≈ 124 µM)
Cc1ccc(-c2nc3ccccc3nc2Cl)cc1 | < 0.3 µg/mL
CCN(Cc1ccncc1)C(=O)C(CO)c1ccccc1 (stereo not given) | > 42.7 µg/mL
Cn1cc(-c2ccccc2C(N)=O)c(=O)c2cc(Cl)ccc21 | 46.3 µg/mL (≈ 148 µM)
Nc1nc(NCc2ccco2)nc(Nc2ccc(F)cc2)c1[N+](=O)[O-] | 0.1 µg/mL (≈ 0.29 µM)
COc1ccc(NC(=O)c2ccc3ncsc3c2)cc1 | 1.3 µg/mL (≈ 4.57 µM)
Cc1cccn2c(=O)nc(SCC(=O)NC3CCCCC3)nc12 | > 49.9 µg/mL
COc1ccc(NC(=S)NC(=O)/C=C/c2ccccc2)cc1 | < 0.3 µg/mL
CC1CCN(C(=O)c2ccccc2NC(=O)c2cccc(S(=O)(=O)N(C)C)c2)CC1 | 63.9 µg/mL (≈ 149 µM)
CCCCCC(=O)NC(=S)Nc1cccc(-c2nc3ncccc3o2)c1 | < 0.2 µg/mL
O=C(NCCc1ccccc1)C(=O)Nc1ccc2c(c1)OCCO2 | < 0.3 µg/mL
CCc1ccc(N2C(=O)CN(Cc3sccc3C)C2=S)cc1 | < 0.4 µg/mL
CCOc1ccc2oc(C(=O)Nc3cc(C)ccn3)c(C)c2c1 | 1.2 µg/mL (≈ 3.87 µM)

Structure (SMILES) | solubility kinetic
CCCCOc1ccc(C(=O)NCCOc2cccc(OC)c2)cc1 | 4 µg/mL (≈ 11.6 µM)
CC(C(=O)NCc1ccccc1Cl)N1C(=O)c2ccccc2C1=O (stereo not given) | > 51.4 µg/mL
CCCc1ccc2oc(C(=O)N(C)Cc3cnccn3)c(C)c2c1 | 26.8 µg/mL (≈ 82.9 µM)
O=C(Cc1ccc(F)cc1)Nc1nc(-c2ccc(F)cc2)cs1 | < 0.4 µg/mL
CSc1nc(S(=O)(=O)c2ccc(C)cc2)c(Cl)s1 | 10 µg/mL (≈ 31.3 µM)
Cc1nc(C)c(/C(O)=C\c2nc3ccc([N+](=O)[O-])cc3oc2=O)o1 | > 49.4 µg/mL
COc1ccc(/C=C2\N=C(C)OC2=O)cc1OC(C)=O | > 41.3 µg/mL
COc1ccccc1NC(=O)N1CCN(c2ccnc3cc(Cl)ccc23)CC1 | 18.5 µg/mL (≈ 46.6 µM)
COC(=O)c1ccccc1NC(=O)NC1CCCCC1 | 2.6 µg/mL (≈ 9.41 µM)
O=C(Nc1ccccc1C(=O)Nc1ccccc1)c1ccccc1F | < 0.4 µg/mL
COc1ccccc1CNC(=O)c1oc2ccccc2c1C | 9.8 µg/mL (≈ 33.2 µM)
CSc1nc(-c2ccccc2)nc(NC(C)=O)c1C(C)=O | 3.9 µg/mL (≈ 12.9 µM)
CCOc1ccccc1NC(=O)Nc1cccc(S(N)(=O)=O)c1 | > 50.3 µg/mL
CC(=O)COc1nc2c(c(-c3ccco3)c1C#N)CCc1ccccc1-2 | 1.7 µg/mL (≈ 4.94 µM)
Cc1ccc(CNC(=O)c2ccc3c(c2)NC(=O)CS3)cc1 | 3.1 µg/mL (≈ 9.92 µM)
CNC(=O)c1[nH]cnc1C(=O)Nc1ccc(F)cc1 | 1.7 µg/mL (≈ 6.48 µM)
O=C(CSC(=S)N1CCOCC1)Nc1nccs1 | 7.9 µg/mL (≈ 26 µM)
COc1ccc(-c2nnc(SCC(=O)NC3CC3)o2)cc1 | > 45.8 µg/mL
CCc1ccc(CNC(=O)CCc2cn(C)c3ccccc23)cc1 | 1.2 µg/mL (≈ 3.74 µM)
CN(Cc1ccccc1F)C(=O)c1sccc1-c1ccccc1 | 14 µg/mL (≈ 43 µM)

Structure (SMILES) | solubility kinetic
COc1ccc(C)cc1S(=O)(=O)Nc1ccncc1 | > 41.7 µg/mL
O=C(O)c1cc(-c2cccc([N+](=O)[O-])c2)nc2ccccc12 | > 44.1 µg/mL
Cc1onc(-c2ccccc2)c1C(=O)N1CCCN2C(=O)c3ccccc3C21 (stereo not given) | 48.7 µg/mL (≈ 130 µM)
CCCCOc1ccc(C(=O)Nc2ccc3c(c2)OCO3)cc1 | < 0.7 µg/mL
COc1ccc(C(=O)N2CCC3(CC2)OCCO3)cc1 | > 41.6 µg/mL
N#CCc1cccnc1Sc1ccc(Cl)cc1 | > 39.1 µg/mL
Cc1ccc(CNCCNCCO)s1.Cl | > 43.1 µg/mL
Cc1ccc2c(CN3CCCCC3C)cc(=O)oc2c1.Cl (stereo not given) | 35.6 µg/mL
Cc1cccc(NC(=O)c2ccc(-c3ccccc3[N+](=O)[O-])o2)c1 | 12.8 µg/mL (≈ 39.7 µM)
O=C(/C=C/c1ccc([N+](=O)[O-])cc1)OCc1cnc(-c2ccccc2)o1 | 6.8 µg/mL (≈ 19.4 µM)
COC(=O)c1ccc(CSC(=N)N)o1 | 27.6 µg/mL (≈ 129 µM)
CC(=O)CC1(O)C(=O)Nc2ccccc21 (stereo not given) | 27.6 µg/mL (≈ 134 µM)
O=C(CNS(=O)(=O)c1ccc(Cl)c(C(F)(F)F)c1)NC1CCCCC1 | 12.6 µg/mL (≈ 31.6 µM)
Cc1cc(C)cc(NC(=O)Nc2cccc(S(N)(=O)=O)c2)c1 | 2.5 µg/mL (≈ 7.83 µM)
CN(Cc1ccccc1)C(=S)NC(=O)c1ccccc1 | 7.5 µg/mL (≈ 26.4 µM)
COc1ccc(/C=C/C(=O)OCC(=O)NC2CCCC(C)C2C)cc1 (stereo not given) | 6.1 µg/mL (≈ 17.7 µM)
O=C(Nc1ccc(F)c(F)c1)C1=COCCO1 | 35.6 µg/mL (≈ 148 µM)
COc1cc(/C=C(/C#N)C(=O)NCc2ccccc2)cc(OC)c1OC | 20 µg/mL (≈ 56.8 µM)
Cc1ccc(NC(=O)COC(=O)C2CC(=O)N(Cc3ccccc3)C2)cc1F (stereo not given) | 46.8 µg/mL (≈ 122 µM)
N#C/C(=C\c1ccncc1)c1nc2ccccc2o1 | 12.9 µg/mL (≈ 52.2 µM)
